Measurements as given in PubChem BioAssay (NCI).
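How tested: cells in 96-well plates exposed to compound for 48 hours at five concentrations. TGI is the concentration that stops growth completely.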

How the values were obtained:
Test in all cases: growth of human tumour cells (NCI), 48 h
[1] = test system: HCC-2998 colon
[2] = test system: A549 NSCLC
[3] = test system: DLD-1 colon
[4] = test system: EKVX NSCLC
[5] = test system: IGROV1 ovarian
[6] = test system: SK-MEL-5 melanoma
[7] = test system: HOP-92 NSCLC
[8] = test system: NCI-H460 lung
[9] = test system: SK-MEL-2 melanoma
[10] = test system: SF-268 CNS
[11] = test system: MALME-3M melanoma
[12] = test system: SK-OV-3 ovarian
[13] = test system: DMS 114 small cell lung
[14] = test system: LOX IMVI melanoma
[15] = test system: HCT-116 colon
[16] = test system: 786-0 renal
[17] = test system: SW-620 colon
[18] = test system: NCI-H226 lung
[19] = test system: ACHN renal
[20] = test system: DMS 273 small cell lung
[21] = test system: LXFL 529 NSCLC
[22] = test system: HOP-18 NSCLC
[23] = test system: SR leukemia
[24] = test system: HL-60(TB) leukemia
[25] = test system: M19-MEL melanoma
[26] = test system: SN12C renal
[27] = test system: KM20L2 colon
[28] = test system: SNB-19 CNS
[29] = test system: SF-539 CNS
[30] = test system: COLO 205 colon
[31] = test system: U251 CNS
[32] = test system: SF-295 CNS
[33] = test system: OVCAR-3 ovarian
[34] = test system: CAKI-1 renal
[35] = test system: RXF 393 renal
[36] = test system: TK-10 renal
[37] = test system: OVCAR-5 ovarian
[38] = test system: NCI-H522 lung
[39] = test system: HCT-15 colon
[40] = test system: SK-MEL-28 melanoma
[41] = test system: OVCAR-8 ovarian
[42] = test system: UACC-62 melanoma
[43] = test system: HT29 colon
[44] = test system: CCRF-CEM leukemia
[45] = test system: K-562 leukemia
[46] = test system: KM12 colon
[47] = test system: UACC-257 melanoma
[48] = test system: MOLT-4 leukemia
[49] = test system: NCI-H23 lung
[50] = test system: RXF-631 renal
[51] = test system: HOP-62 NSCLC
[52] = test system: SNB-78 CNS
[53] = test system: SNB-75 CNS
[54] = test system: OVCAR-4 ovarian
[55] = test system: A498 renal
[56] = test system: M14 melanoma
[57] = test system: RPMI-8226 leukemia
[58] = test system: UO-31 renal

Measured: TGI

Cn1c(C2CCCc3c2c2ccccc2n3C)cc2ccccc21 (stereo unspecified)
299 µM: [7]
142 µM: [38]
not listed: [52] | [53] | [54] | [55] | [56] | [57] | [58]
> 318 µM: all other assays above

CCCCCCCCCCCCC(=O)CCCCC(=O)O
30.7 µM: [43]
44.6 µM: [2]
34.1 µM: [6]
36.6 µM: [29]
38.6 µM: [50]
36.3 µM: [55]
60 µM: [58]
42 µM: [13]
35.8 µM: [37]
35.7 µM: [48]
36.1 µM: [42]
54.6 µM: [15]
43.6 µM: [11]
42.1 µM: [38]
46.5 µM: [40]
47 µM: [23]
79 µM: [31]
71.1 µM: [53]
39.8 µM: [45]
55.8 µM: [26]
46.6 µM: [14]
47.4 µM: [9]
38.9 µM: [25]
35.3 µM: [5] | [21]
41.9 µM: [51]
29.5 µM: [46]
32.7 µM: [30]
33.4 µM: [24]
51.2 µM: [32]
59.1 µM: [18]
84.7 µM: [16]
38.1 µM: [3]
39.1 µM: [8]
40.8 µM: [57]
33.6 µM: [56]
73.7 µM: [19]
59.3 µM: [22]
39.7 µM: [41]
41.5 µM: [7]
71.6 µM: [10]
not listed: [1] | [27] | [39]
> 100 µM: all other assays above

COc1cc(C(=O)Nc2cccc3ccccc23)c(Br)c(OC)c1OC
76.2 µM: [24]
19.5 µM: [22]
86.1 µM: [58]
3.1 µM: [16]
13.6 µM: [41]
not listed: [20] | [52] | [55]
> 100 µM: all other assays above
